Broadly, the AC50 is the concentration giving half of the maximal activity seen. The CC50 is the concentration giving 50% cytotoxicity.

This is an account of results in ChEMBL document CHEMBL1201862, “PubChem BioAssay data set” (2004).

The source made the active and inactive calls.

The target in one assay is T1, NADPH oxidase 1 (Homo sapiens, UniProt Q9Y5S8).
T1 sequence (Q9Y5S8 whole entry): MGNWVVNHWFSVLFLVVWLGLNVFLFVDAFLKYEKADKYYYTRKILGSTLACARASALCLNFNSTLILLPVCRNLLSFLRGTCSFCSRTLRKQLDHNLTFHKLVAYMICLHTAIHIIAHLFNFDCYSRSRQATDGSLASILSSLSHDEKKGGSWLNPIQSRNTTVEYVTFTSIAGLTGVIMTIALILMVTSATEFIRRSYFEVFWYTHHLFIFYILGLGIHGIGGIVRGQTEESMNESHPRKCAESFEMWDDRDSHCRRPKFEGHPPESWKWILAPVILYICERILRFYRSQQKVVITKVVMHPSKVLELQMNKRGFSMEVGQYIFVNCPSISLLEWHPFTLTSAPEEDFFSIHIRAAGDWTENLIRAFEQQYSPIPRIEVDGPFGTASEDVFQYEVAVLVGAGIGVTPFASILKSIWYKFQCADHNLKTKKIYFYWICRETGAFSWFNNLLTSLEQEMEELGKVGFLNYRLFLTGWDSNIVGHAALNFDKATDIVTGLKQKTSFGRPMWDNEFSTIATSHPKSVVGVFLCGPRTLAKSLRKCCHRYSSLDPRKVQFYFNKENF
The assay can be described thus: Luminescence-based cell-based dose response assay to identify inhibitors of NADPH oxidase 1 (NOX1). Type of assay: functional.

Assay [1] can be described thus: Luminescence Cell-Based Dose Response HTS to Identify Inhibitors of 5'UTR Stem-Loop Driven Prion Protein mRNA Translation in H4 Neuroglioblastoma Cells. [Related pubchem assays: 1827 (Project Summary), 1813 (Primary HTS)]. Format: functional.
Assay [2] is described as follows: Luminescence-based dose response cell-based high throughput screening assay for cytotoxic compounds using the IEC-6 intestinal epithelial cell line. [Related pubchem assays: 1858 (Summary AID.), 1825 (Counterscreen.), 1907 (Confirmation screen.)]. Type of assay: functional. In general terms: The purpose of a counterscreen is to sort out artefacts and off-target activity.

Assay [3] can be described thus: inhibitors of SNCA 5'UTR-driven reporter translation, confirmation, H4 neuroglioma cells, luminescence (AID 1988). Type of assay: functional, cell-based.
The target in assay [4] is T2, Heat shock factor protein 1 (Mus musculus, UniProt P38532).
T2 sequence (P38532 whole entry): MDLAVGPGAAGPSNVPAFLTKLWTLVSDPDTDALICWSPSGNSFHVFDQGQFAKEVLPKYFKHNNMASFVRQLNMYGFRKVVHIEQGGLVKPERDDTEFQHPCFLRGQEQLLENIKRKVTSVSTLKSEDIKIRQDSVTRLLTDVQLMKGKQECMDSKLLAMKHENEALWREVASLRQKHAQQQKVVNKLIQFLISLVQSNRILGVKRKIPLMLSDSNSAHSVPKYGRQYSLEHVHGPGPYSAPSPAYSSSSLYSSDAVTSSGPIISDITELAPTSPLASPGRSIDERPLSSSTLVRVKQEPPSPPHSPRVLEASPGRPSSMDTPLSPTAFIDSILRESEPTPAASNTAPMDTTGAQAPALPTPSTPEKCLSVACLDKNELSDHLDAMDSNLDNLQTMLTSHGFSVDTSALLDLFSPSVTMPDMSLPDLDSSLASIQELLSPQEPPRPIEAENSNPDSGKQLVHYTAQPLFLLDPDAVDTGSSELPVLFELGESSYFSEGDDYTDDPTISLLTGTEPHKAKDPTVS
Kind of assay: inhibition of MG132-induced HSE-luciferase signal, confirmation, cell-based, NIH3T3, luminescence, dose retest (AID 2382).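 Also: NIH3T3 fibroblasts with HSF1-driven luciferase reporter stressed by proteasome inhibitor MG132; luminescence from HSF1-driven luciferase expression after 8 hours of MG132 stress.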 Type of assay: functional.

The nature of assay [5]: inhibitors of firefly luciferase expression or activity, dose response, H4 neuroglioma cells, luminescence (AID 1990). Format: functional, cell-based.
Assay [6] concerns the target T3, Replicative DNA helicase DnaB (Mycobacterium tuberculosis, UniProt P9WMR3).
T3 sequence (P9WMR3 whole entry): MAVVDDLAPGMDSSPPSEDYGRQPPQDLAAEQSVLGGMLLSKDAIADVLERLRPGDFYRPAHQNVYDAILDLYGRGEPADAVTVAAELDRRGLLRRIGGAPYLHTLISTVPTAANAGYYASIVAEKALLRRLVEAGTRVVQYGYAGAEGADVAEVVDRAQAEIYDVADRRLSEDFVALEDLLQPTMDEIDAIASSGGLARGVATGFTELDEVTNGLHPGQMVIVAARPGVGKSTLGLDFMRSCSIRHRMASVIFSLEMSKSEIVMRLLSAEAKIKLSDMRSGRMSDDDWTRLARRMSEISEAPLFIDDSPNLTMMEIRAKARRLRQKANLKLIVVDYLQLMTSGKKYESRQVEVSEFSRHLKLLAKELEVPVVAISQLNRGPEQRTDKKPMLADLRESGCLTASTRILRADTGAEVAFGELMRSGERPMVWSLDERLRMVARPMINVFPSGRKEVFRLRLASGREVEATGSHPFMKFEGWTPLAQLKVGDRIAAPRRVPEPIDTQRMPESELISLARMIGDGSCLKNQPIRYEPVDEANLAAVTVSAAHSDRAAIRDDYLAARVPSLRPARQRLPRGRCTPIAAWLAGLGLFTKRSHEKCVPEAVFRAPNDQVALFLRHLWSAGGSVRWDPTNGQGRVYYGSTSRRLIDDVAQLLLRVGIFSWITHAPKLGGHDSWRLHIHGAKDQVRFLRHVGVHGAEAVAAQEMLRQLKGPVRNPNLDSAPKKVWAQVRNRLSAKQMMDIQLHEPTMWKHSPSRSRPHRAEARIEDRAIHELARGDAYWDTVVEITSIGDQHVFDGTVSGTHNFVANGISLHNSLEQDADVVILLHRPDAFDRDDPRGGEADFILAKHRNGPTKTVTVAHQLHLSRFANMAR
The assay can be described thus: DnaB intein splicing inhibitors, dose response, biochemical, cell-free fluorescence (AID 449749). Type of assay: functional.

The next assay deals with T4, Protein RecA (Mycobacterium tuberculosis, UniProt P9WHJ3).
T4 sequence (P9WHJ3 whole entry): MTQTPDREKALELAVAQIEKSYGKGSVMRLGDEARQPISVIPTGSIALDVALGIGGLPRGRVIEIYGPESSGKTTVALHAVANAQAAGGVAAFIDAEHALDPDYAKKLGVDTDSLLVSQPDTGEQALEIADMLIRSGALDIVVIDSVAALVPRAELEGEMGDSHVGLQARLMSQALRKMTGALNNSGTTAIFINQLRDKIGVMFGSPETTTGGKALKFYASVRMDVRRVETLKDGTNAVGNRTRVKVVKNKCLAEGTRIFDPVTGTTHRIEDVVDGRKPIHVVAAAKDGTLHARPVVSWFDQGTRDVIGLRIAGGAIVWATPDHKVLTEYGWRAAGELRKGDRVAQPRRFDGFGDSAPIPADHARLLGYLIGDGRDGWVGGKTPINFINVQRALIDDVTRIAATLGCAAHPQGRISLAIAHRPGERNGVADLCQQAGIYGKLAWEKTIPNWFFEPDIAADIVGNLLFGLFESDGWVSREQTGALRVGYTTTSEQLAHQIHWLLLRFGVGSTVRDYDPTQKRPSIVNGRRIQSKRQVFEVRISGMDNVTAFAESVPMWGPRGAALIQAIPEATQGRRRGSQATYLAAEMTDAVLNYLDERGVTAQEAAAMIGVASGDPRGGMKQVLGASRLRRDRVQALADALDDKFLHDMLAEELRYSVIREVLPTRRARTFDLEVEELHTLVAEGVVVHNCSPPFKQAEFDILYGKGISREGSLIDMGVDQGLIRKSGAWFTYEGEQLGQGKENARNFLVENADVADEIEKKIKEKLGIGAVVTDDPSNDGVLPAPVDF
The assay can be described thus: Fluorescence Cell-Free Homogeneous Dose Retest to Identify Inhibitors of RecA-Intein Splicing Activity. [Related pubchem assays (depositor defined):AID2097, AID2223, AID489010, AID492950]. Format: functional.

For assay [7], the target named is T5, Corticotropin-releasing factor receptor 2/Corticotropin-releasing factor-binding protein (Homo sapiens, UniProt P24387+Q13324).
T5 sequence (Q13324 whole entry): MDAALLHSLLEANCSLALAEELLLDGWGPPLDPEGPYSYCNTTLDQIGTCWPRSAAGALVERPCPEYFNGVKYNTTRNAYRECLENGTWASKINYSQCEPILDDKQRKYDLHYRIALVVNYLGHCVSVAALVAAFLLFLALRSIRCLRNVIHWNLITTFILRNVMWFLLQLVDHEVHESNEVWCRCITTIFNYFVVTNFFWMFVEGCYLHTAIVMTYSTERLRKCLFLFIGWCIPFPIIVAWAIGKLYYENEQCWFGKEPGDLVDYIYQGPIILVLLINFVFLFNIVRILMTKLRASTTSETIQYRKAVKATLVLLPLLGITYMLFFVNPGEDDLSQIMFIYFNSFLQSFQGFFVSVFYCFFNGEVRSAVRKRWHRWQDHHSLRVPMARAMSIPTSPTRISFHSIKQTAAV
T5 sequence (P24387 whole entry): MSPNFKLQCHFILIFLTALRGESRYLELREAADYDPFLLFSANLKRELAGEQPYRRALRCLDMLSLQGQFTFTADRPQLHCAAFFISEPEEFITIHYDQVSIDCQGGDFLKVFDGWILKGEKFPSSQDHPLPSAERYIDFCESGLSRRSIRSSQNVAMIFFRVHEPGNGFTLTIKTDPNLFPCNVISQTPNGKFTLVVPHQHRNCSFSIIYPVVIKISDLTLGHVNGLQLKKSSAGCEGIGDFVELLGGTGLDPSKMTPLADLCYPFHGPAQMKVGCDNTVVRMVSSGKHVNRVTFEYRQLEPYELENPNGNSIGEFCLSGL
The assay can be described thus: activators of CRF receptor 2 with binding protein – uHTS hits, confirmation (AID 602473). The note with it: read-out: EC50_Mean. Type of assay: functional.

The nature of assay [8]: CRF-BP/CRF-R2 complex antagonists, dose response, cell-based, uHTS hits, 384-well (AID 651639). Format: functional, Homo sapiens. The following applies: read-out: IC50_Mean.
Assay [9] is described as follows: HEp-2 cell cytotoxicity, dose response, cytotoxicity control for RSV inhibitor project, HTS (AID 2410). Format: functional. The following applies: human respiratory syncytial virus.
Assay [10] has as its target T5, Corticotropin-releasing factor receptor 2/Corticotropin-releasing factor-binding protein. Kind of assay: Dose Response confirmation of uHTS hits for small molecule antagonists of the CRF-binding protein and CRF-R2 receptor complex. The note with it: read-out: IC50_Mean. Type of assay: functional.
For another assay, the target named is T6, Estrogen receptor (Homo sapiens, UniProt P03372).
T6 sequence (P03372 whole entry): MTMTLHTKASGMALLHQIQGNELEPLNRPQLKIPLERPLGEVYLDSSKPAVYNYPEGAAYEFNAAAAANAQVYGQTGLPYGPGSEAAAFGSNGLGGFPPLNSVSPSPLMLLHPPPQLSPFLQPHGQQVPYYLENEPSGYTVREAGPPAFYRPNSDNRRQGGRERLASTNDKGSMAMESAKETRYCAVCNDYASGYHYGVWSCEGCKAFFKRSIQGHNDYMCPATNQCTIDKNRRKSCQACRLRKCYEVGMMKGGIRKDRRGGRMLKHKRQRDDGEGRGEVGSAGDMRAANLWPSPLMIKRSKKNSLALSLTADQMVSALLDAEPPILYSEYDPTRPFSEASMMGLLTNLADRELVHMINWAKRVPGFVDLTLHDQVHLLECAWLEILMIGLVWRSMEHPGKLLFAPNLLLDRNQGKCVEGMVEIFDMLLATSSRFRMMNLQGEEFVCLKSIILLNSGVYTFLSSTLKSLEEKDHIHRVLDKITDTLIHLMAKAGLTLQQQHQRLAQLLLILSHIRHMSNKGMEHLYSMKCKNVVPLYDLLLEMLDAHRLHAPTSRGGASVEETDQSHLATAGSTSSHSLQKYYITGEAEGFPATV
The assay can be described thus: potentiators of ERα–SRC-1 coactivator binding, dose response, biochemical, TR-FRET, ERα LBD (AID 737). In general terms: Time-resolved FRET reads energy transfer from a long-lived donor to a nearby acceptor.

The target in assay [11] is Neuropeptide Y receptor type 2 (Homo sapiens, UniProt P49146). The assay can be described thus: NPY-Y2 antagonist potency, selectivity check, dose response, counter-screen for NPY-Y1 antagonist project, cell-based (AID 1278). Type of assay: functional.
The target in assay [12] is Neuropeptide Y receptor type 1 (Homo sapiens, UniProt P25929). Kind of assay: NPY-Y1 receptor antagonist potency, dose response, cell-based (AID 1277). Type of assay: functional.
Neuropeptide Y receptor type 1, sequence (P25929 whole entry): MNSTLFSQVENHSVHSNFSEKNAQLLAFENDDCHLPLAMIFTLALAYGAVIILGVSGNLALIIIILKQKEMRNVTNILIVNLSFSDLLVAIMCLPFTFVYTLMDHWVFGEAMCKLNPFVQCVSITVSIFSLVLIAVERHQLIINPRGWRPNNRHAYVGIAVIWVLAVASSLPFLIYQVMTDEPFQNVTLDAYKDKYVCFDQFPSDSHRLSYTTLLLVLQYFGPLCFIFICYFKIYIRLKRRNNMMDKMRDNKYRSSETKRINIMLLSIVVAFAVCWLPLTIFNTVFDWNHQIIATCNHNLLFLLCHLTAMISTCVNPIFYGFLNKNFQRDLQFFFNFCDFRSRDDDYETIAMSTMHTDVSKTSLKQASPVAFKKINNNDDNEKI

Neuropeptide Y receptor type 2, sequence (P49146 whole entry): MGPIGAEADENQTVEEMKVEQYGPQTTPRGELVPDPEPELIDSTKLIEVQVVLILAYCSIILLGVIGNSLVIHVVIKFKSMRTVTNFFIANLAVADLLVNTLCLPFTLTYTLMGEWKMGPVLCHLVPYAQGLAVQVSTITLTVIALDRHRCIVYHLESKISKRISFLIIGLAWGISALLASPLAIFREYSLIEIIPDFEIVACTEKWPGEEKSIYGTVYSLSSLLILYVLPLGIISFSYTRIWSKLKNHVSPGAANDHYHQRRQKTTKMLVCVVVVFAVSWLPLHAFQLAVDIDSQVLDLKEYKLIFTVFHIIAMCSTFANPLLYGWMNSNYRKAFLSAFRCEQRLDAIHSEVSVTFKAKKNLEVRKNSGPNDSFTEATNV

As to `CC(=NNc1ccc(C(=O)O)cc1)c1ccc2c(c1)Nc1ccccc1S2`, the IC50 at NADPH oxidase 1 is 0.053 µM (active).

As to `O=C1C=C(NCCN2CCOCC2)C(=O)c2cnccc21`, the EC50 in assay [1] is 6.81 µM (active); in assay [3], 1.88 µM (active); in [4], 10.4 µM (active); in assay [5], 1.99 µM (active); on Protein RecA it was 0.536 µM (active). Also, the IC50 in [2] is 0.512 µM (active). Also, the half-maximal activity concentration (AC50) in [6] is 0.979 µM (active).

Turning to `O=C(O)c1ccc(-c2nc(-c3ccc(Cl)cc3Cl)cs2)cc1`, the EC50 in assay [7] was > 53 µM (inactive). Besides, the IC50 was > 20 µM (inactive) in assay [8], 3.82 µM (active) in assay [10] and 44.2 µM (active) in the assay “cells”. In addition, in assay [9], the 50% cytotoxic concentration (CC50) was > 50 µM (active).

As to `Cc1cc2oc(=O)cc(COC(=O)c3[nH]nc4ccccc34)c2cc1C`, on Estrogen receptor, the EC50 was 13.5 µM (active).

Turning to `COc1ccccc1N(CC(=O)NC1CCCC1)C(=O)c1oc(C(C)(C)C)cc1C`, the IC50 in assay [11] is listed as > 35 µM (not active); in assay [12] it was 30.4 µM (not active).
